Source: patent US9126945B2, “N-(3-carbamoylphenly)-1H-pyrazole-5-carboxamide derivatives and the use thereof for controlling animal pests” (BAYER INTELLECTUAL PROPERTY GMBH, priority 2011, dated 2015)

What was measured:
[1] = test system: Spodoptera frugiperda; test: Spodoptera frugiperda test (SPODFR spray treatment), maize leaf discs; format: in vivo
From the text: Spodoptera frugiperda Test (SPODFR Spray Treatment)

[2] = test system: Myzus persicae; test: Myzus test (MYZUPE spray treatment); format: in vivo
Procedure: Myzus test (Myzupe spray treatment)
After 6 days, the efficacy in % is determined.
Myzus Test (MYZUPE Spray Treatment)

[3] = test system: Ctenocephalides felis; test: Ctenocephalides felis oral (CTECFE); format: in vivo
Procedure: Ctenocephalides felis Oral (CTECFE)
Solvent: 1 part by weight of dimethyl sulphoxide
For the purpose of producing a suitable preparation of active compound, 10 mg of active compound are mixed with 0.5 ml of dimethyl sulphoxide. A portion of the concentrate is diluted with citrated cattle blood, and the desired concentration is prepared.
(§1) About 20 unfed adult fleas (Ctenocephalides felis) are placed into a chamber which is closed at the top and bottom with gauze. A metal cylinder whose bottom end is closed with parafilm is placed onto the chamber. The cylinder contains the blood/active compound preparation, which can be taken up by the fleas through the parafilm membrane. After 2 days, the kill in % is determined.
For the purpose of preparing an appropriate active compound formulation, 10 mg of active compound are mixed with 0.5 ml of dimethyl sulphoxide. A portion of the concentrate is diluted with citrated cattle blood, and the desired concentration is prepared.
as §1, with “membrane.” for “membrane. After 2 days, the kill in % is determined.”

[4] = test system: Lucilia cuprina larvae; test: Lucilia cuprina test (LUCICU); format: in vivo; settings: 100 ppm; after 2 days
Procedure: Lucilia cuprina Test (LUCICU)
(§2) Solvent: dimethyl sulphoxide
Vessels containing horse meat treated with the active compound preparation of the desired concentration are populated with about 20 Lucilia cuprina larvae.
(§3) After 2 days, the kill in % is determined.

[5] = test system: Musca domestica; test: Musca domestica test (MUSCDO); format: in vivo
Procedure: Musca domestica Test (MUSCDO)
as §2
Vessels containing a sponge treated with the active compound preparation of the desired concentration are populated with adult Musca domestica.
as §3
Vessels containing a sponge treated with the active compound formulation of the desired concentration are populated with adult Musca domestica.
After the desired period of time, the kill in % is determined.

[6] = test system: Amblyomma hebraeum; test: Amblyomma hebaraeum test (AMBYHE); format: in vivo; settings: 100 ppm; after 42 days
Procedure: Amblyomma hebaraeum Test (AMBYHE)
as §2
Tick nymphs (Amblyomma hebraeum) are placed into perforated plastic beakers and immersed in the desired concentration for one minute. The ticks are transferred on filter paper into a Petri dish and stored in a climate-controlled cabinet.
After 42 days, the kill in % is determined.

[7] = test system: Phaedon cochleariae; test: Phaedon cochleariae spray test (PHAECO), cabbage leaves, ppm; format: in vivo; settings: 168 h, 4 ppm, 7 dat
From the text: Phaedon cochleariae Spray Test (PHAECO)
(§4) Solvent: 7 parts by weight of dimethylformamide
(§5) Emulsifier: 2 parts by weight of alkylaryl polyglycol ether
(§6) If the addition of ammonium salts or/and penetrants is required, these are in each case added in a concentration of 1000 ppm to the solution of the preparation.

[8] = test system: Heliothis armigera; test: Heliothis armigera spray test (HELIAR); format: in vivo; settings: Helicoverpa armigera, 168 h, 7 dat
From the text: Heliothis armigera Spray Test (HELIAR)
as §4, §5, §6

[9] = test system: Tetranychus urticae; test: Tetranychus urticae spray test, OP-resistant (TETRUR), bean plants, ppm; format: in vivo; settings: 168 h, 7 dat
From the text: Tetranychus urticae Spray Test, OP-Resistant (TETRUR)
as §4, §5, §6

[10] = test system: Nilaparvata lugens; test: Nilaparvata lugens spray test (NILALU); format: in vivo; settings: 168 h, 7 dat
From the text: Nilaparvata lugens Spray Test (NILALU)
as §6

[11] = log P by HPLC, EEC Directive 79/831 Annex V.A8, method a); format: physicochemical; settings: reversed-phase C18 HPLC column; cell marked a): HPLC, reversed-phase C18, acetonitrile/water with formic acid, gradient 10% to 95% acetonitrile
Method in brief: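 Reversed-phase C18 HPLC (50*4.6, 1.8 micron) per EEC Directive 79/831 Annex V.A8, acetonitrile/water with formic acid, gradient 10% to 95% acetonitrile over 4.25 min then 1.25 min hold; 55° C, 2.0 ml/min, with MS detection.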

Cn1nc(C(F)(F)C(F)(F)F)c(C(F)(F)F)c1C(=O)Nc1ccc(Cl)c(C(=O)NC2(C#N)CC2)c1 [Example 10]
inhibition at 100 g/ha ([1]; Spodoptera frugiperda, foliar, 168 h, SPODFR, 100 g/ha, 7 dat): 100% | efficacy in % ([1]; application rate 500 g/ha, after 7 days): 100% | inhibition at 20 g/ha ([2]; Myzus persicae, 144 h, MYZUPE, 20 g/ha, 6 dat): 80% | inhibition at 100 g/ha ([2]; Myzus persicae, 144 h, MYZUPE, 100 g/ha, 6 dat): 100% | inhibition at 500 g/ha ([2]; Myzus persicae, 144 h, MYZUPE, 500 g/ha, 6 dat): 100% | efficacy in % ([2]; application rate 500 g/ha, after 6 days): 100% | kill in % (effect) ([3]; 100 ppm, after 2 days): 100% | inhibition at 0.8 ppm ([3]; Ctenocephalides felis, po, 48 h, CTECFE, 0.8 ppm, 2 dat): 90% | inhibition at 4 ppm ([3]; Ctenocephalides felis, po, 48 h, CTECFE, 4 ppm, 2 dat): 98% | inhibition at 20 ppm ([3]; Ctenocephalides felis, po, 48 h, CTECFE, 20 ppm, 2 dat): 100% | kill in % (efficacy) [4]: 100% | kill in % (efficacy) ([5]; 100 ppm, after 2 days): 100% | inhibition at 100 ppm ([5]; Musca domestica, 48 h, MUSCDO, 2 dat): 100% | kill in % (effect) [6]: 100% | inhibition at 4 ppm [7]: 100% | inhibition at 20 ppm ([8]; 20 ppm): 100% | inhibition at 100 ppm ([8]; 100 ppm): 100% | inhibition at 4 ppm ([9]; 4 ppm): 100% | inhibition at 20 ppm ([9]; 20 ppm): 100% | inhibition at 100 g/ha ([10]; 100 g/ha): 100% | inhibition at 500 g/ha ([10]; 500 g/ha): 100% | chromatographic logP [11]: 3.27
